Measured values taken from the NIST ThermoML archive (doi:10.1016/j.jct.2014.01.030).

Columns and labels:
[1] = molar heat capacity at constant pressure; conditions: 101.33 kPa, Liquid, Small sample (50 mg) DSC
[2] = refractive index (Na D-line) (dimensionless); conditions: 101.33 kPa, Liquid, Standard Abbe refractometry
[3] = Liquid; for speed of sound: Sing-around technique in a fixed-path interferometer; for mass density: Vibrating tube method; for viscosity: Capillary tube (Ostwald / Ubbelohde) method
[4] = xn = mol fraction of the nth substance listed; conditions: 101 kPa, Liquid, x1 = 1; for speed of sound: Sing-around technique in a fixed-path interferometer; for mass density: Vibrating tube method

CCn1cc[n+](C)c1.COS(=O)(=O)[O-] [1-ethyl-3-methylimidazolium methylsulfate]
Conditions | molar heat capacity at constant pressure, [1] [J/K/mol] | refractive index, [2]
288.15 K | 331.48 | –
293.15 K | – | 1.48252
298.15 K | 340.77 | 1.48125
303.15 K | – | 1.47998
308.15 K | 346.99 | 1.47868
313.15 K | – | 1.4774
318.15 K | – | 1.47612
323.15 K | – | 1.4748
328.15 K | – | 1.4735
333.15 K | – | 1.47218
338.15 K | – | 1.47086
343.15 K | – | 1.46954

[3], 101.33 kPa
Conditions | mass density [kg/m3] | speed of sound [m/s] | viscosity [mPa·s]
288.15 K | 1287.57 | 1781 | –
293.15 K | 1284.26 | 1768 | 85.22
298.15 K | 1280.81 | 1756 | 67.06
303.15 K | 1277.28 | 1744 | 54.39
308.15 K | 1273.97 | 1732 | 44.68
313.15 K | 1270.57 | 1720 | 37.1
318.15 K | 1267.18 | 1709 | 31.27
323.15 K | 1263.81 | 1697 | 26.81
328.15 K | 1260.45 | 1686 | 22.74
333.15 K | 1257.09 | 1675 | 19.71
338.15 K | 1253.75 | 1663 | 17.25
343.15 K | 1250.42 | 1652 | 15.16

CCC(C)O (configuration not stated) [butan-2-ol]
Conditions | refractive index
[2], 298.15 K | 1.39487

[3], 101 kPa
Conditions | mass density [kg/m3] | speed of sound [m/s]
288.15 K | 810.96 | 1249
298.15 K | 802.82 | 1213
308.15 K | 794.34 | 1177

CCC(C)O (configuration not stated) [butan-2-ol] + CCn1cc[n+](C)c1.COS(=O)(=O)[O-]
[4]
Conditions | mass density [kg/m3] | speed of sound [m/s]
288.15 K | 810.96 | 1249
298.15 K | 802.82 | 1213
308.15 K | 794.34 | 1177

CCO [ethanol]
Conditions | refractive index
[2], 298.15 K | 1.35907

[3], 101 kPa
Conditions | mass density [kg/m3] | speed of sound [m/s]
288.15 K | 794.04 | 1179
298.15 K | 785.52 | 1145
308.15 K | 776.87 | 1111

CCO [ethanol] + CCn1cc[n+](C)c1.COS(=O)(=O)[O-]
[4]
Conditions | mass density [kg/m3] | speed of sound [m/s]
288.15 K | 794.04 | 1179
298.15 K | 785.52 | 1145
308.15 K | 776.87 | 1111

CO [methanol]
Conditions | refractive index
[2], 298.15 K | 1.32649

[3], 101 kPa
Conditions | mass density [kg/m3] | speed of sound [m/s]
288.15 K | 796.46 | 1137
298.15 K | 787.1 | 1104
308.15 K | 777.64 | 1071

CO [methanol] + CCn1cc[n+](C)c1.COS(=O)(=O)[O-]
[4]
Conditions | mass density [kg/m3] | speed of sound [m/s]
288.15 K | 796.46 | 1137
298.15 K | 787.1 | 1104
308.15 K | 777.64 | 1071

CCCCCO [pentan-1-ol]
Conditions | refractive index
[2], 298.15 K | 1.40774

[3], 101 kPa
Conditions | mass density [kg/m3] | speed of sound [m/s]
288.15 K | 818.25 | 1310
298.15 K | 810.99 | 1276
308.15 K | 803.61 | 1243

CCCCCO [pentan-1-ol] + CCn1cc[n+](C)c1.COS(=O)(=O)[O-]
[4]
Conditions | mass density [kg/m3] | speed of sound [m/s]
288.15 K | 818.25 | 1310
298.15 K | 810.99 | 1276
308.15 K | 803.61 | 1243

CCCO [propan-1-ol]
Conditions | refractive index
[2], 298.15 K | 1.38286

[3], 101 kPa
Conditions | mass density [kg/m3] | speed of sound [m/s]
288.15 K | 808.48 | 1243
298.15 K | 800.5 | 1208
308.15 K | 792.38 | 1174

CCCO [propan-1-ol] + CCn1cc[n+](C)c1.COS(=O)(=O)[O-]
[4]
Conditions | mass density [kg/m3] | speed of sound [m/s]
288.15 K | 808.48 | 1243
298.15 K | 800.5 | 1208
308.15 K | 792.38 | 1174

CC(C)O [propan-2-ol]
Conditions | refractive index
[2], 298.15 K | 1.37523

[3], 101 kPa
Conditions | mass density [kg/m3] | speed of sound [m/s]
288.15 K | 790.01 | 1177
298.15 K | 781.67 | 1141
308.15 K | 773.03 | 1106

CC(C)O [propan-2-ol] + CCn1cc[n+](C)c1.COS(=O)(=O)[O-]
[4]
Conditions | mass density [kg/m3] | speed of sound [m/s]
288.15 K | 790.01 | 1177
298.15 K | 781.67 | 1141
308.15 K | 773.03 | 1106
